For data set [1], the system named is S. aureus COL. In words: MIC assay, S. aureus COL. It counts as cell-based, Staphylococcus aureus. The settings on record: β-lactams. On the procedure:
(§1) MIC assays were performed in duplicate in 96-well microtiter plates on the basis of the protocol recommended by the Clinical and Laboratory Standards Institute (Cockerill, 2012, Clinical and Laboratory Standards Institute). All presented data are the average of at least three independent assays. Stock solutions of malacidin or daptomycin (2 mg ml^−1 in H2O) were added to the first well in a row and serially diluted (twofold per transfer) across the microtiter plate. CaCl2 was supplemented to media at a final concentration of 15 mM and fetal bovine serum (ATCC) was added to media (1:10) to test the effect of serum. Overnight cultures of bacteria were diluted 5,000-fold, and 50 μl was used as an inoculum in each well. MIC values were determined by visual inspection after 18 h incubation (30° C., static growth). For the enhanced calcium titration experiments, standard MIC assays were performed with methicillin-resistant Staphylococcus aureus (MRSA) PFGE strain type USA300 in media supplemented with CaCl2 at: 25.0, 18.8, 14.1, 7.03, 3.52, 2.50, 1.76, 0.880, 0.440, 0.250 and 0 mM. To assess the effects of monovalent and divalent cations on malacidin activity, standard MIC assays were performed with MRSA USA300 in media supplemented with 15 mM CaCl2, MgCl2, MnCl2, ZnCl2, SrCl2, NaCl and KCl. To evaluate the effects of pulmonary surfactants on activity against a community-acquired pneumonia-causing pathogen, standard MIC assays were performed with Streptococcus pneumoniae TCH8431 in media supplemented with both 15 mM […] and Survanta (beractant) at a final concentration of 5, 1, 0.5, 0.25 or 0% (volume/volume (v/v) percent).

Data set [2] deals with MRSA USA300. In words: Membrane leakage assay (SYTOX green). The conditions noted are these: 20 μg ml^−1. It counts as cell-based, Staphylococcus aureus. On the procedure:
The effects of malacidin on membrane integrity was assessed using SYTOX green. In brief, single colonies of MRSA USA300 were grown in LB media with and without 15 mM CaCl2 to an OD600 nm of 0.35. Nine hundred microlitres of cells were mixed with 100 μL of 17 μM SYTOX green dye (Thermo Fisher). The resulting mixture was incubated for 5 min at 22° C., and then distributed to a microtiter plate at 50 μl per well. An initial reading of fluorescence pre-antibiotic addition was measured at excitation and emission wavelengths of 488 nm and 523 nm, respectively. Fifty microlitres of antibiotics was added to respective wells at a final concentration of 20 μg ml^−1. Measurements were immediately collected for 10 min. To assess the effects of malacidin on membrane depolarization, similar assays were set up using the membrane potential probe, DiBAC4 (bis-(1,3-dibutylbarbituric acid)trimethine oxonol). Single colonies of MRSA USA300 were grown in LB media with and without 15 mM CaCl2 to an OD600 nm of 0.35. Nine hundred microlitres of cells were mixed with 100 μl of 20 μg ml DiBAC4dye (Thermo Fisher). The resulting mixture was incubated for 5 min at 22° C., and then distributed to a microtiter plate at 50 μl per well. An initial reading of fluorescence pre-antibiotic addition was measured at excitation and emission wavelengths of 492 nm and 515 nm, respectively. Fifty microlitres of antibiotics was added to respective wells at a final concentration of 20 μg ml^−1. Measurements were immediately collected for 10 min. Representative examples from three technical replicates are shown.

Data set [3] relates to S. aureus NRS100. As to the kind of experiment: MIC assay, S. aureus NRS100. It counts as cell-based, Staphylococcus aureus. The conditions noted are these: β-lactams. The method, then:
as §1

For data set [4], the system named is S. aureus BAA-42. As to the kind of experiment: MIC assay, S. aureus BAA-42. The settings on record: β-lactams. It counts as cell-based, Staphylococcus aureus. The method, then: as §1
The test system of data set [5] is Salmonella enterica IR 715. In words: MIC assay, Salmonella enterica. The format is cell-based. The method, then: as §1
Data set [6] deals with Acinetobacter baumannii ATCC 17978. As to the kind of experiment: MIC assay, A. baumannii. The format is cell-based. The settings on record: range of at least three independent experiments. On the procedure:
as §1

In data set [7] the test system is S. aureus NRS146. As to the kind of experiment: MIC assay, S. aureus NRS146. The conditions noted are these: β-lactams. It counts as cell-based, Staphylococcus aureus. On the procedure: as §1
Data set [8] relates to E. faecium VRE. As to the kind of experiment: MIC assay, E. faecium VRE. It counts as cell-based, Enterococcus faecium. The conditions noted are these: Vancomycin (VRE). The method, then:
as §1

Data set [9] in a line: Complex formation with cell wall precursors (TLC mobility shift), C55-P. The format is binding. The conditions noted are these: 1 nmol precursor, 0.5 nmol antibiotic. The method, then:
Binding of malacidin to C55-P and lipid II was evaluated by incubating 1 nmol of each purified precursor with 0.5 nmol of malacidin or daptomycin in 100 mM Tris-HCl, pH 7.5, 0.1% Triton X-100, 13 mM MgCl2, and with or without 25 mM CaCl2, for 60 min at 37° C. Subsequently, the mixture was extracted twice with n-BuOH/6 M pyridinium acetate buffer, pH 4.2 (3:1, v/v). The butanol fraction was evaporated and the residue was dissolved in CHCl3/methanol (1:1, v/v). The resuspension was analysed for the loss of unbound malacidin or daptomycin to a complex by TLC analysis using chloroform/methanol/water/ammonia (88:48:10:1, v/v/v/v) as the solvent and detection by 254/366 nm visualization. Experiments were performed with biological replicates.

In data set [10] the test system is MRC5 cells. The format is cell-based, human. The method, then:
(§2) Cytotoxicity against human cell lines was tested using an ATP release assay, CelITiter-Glo (Promega), according to the manufacturer's instructions. HEK293 cells (293FT, Thermo Fisher Scientific, no. R700-07) and MRC5 cells (ATCC CCL-171) were grown in complete DMEM media supplemented with 10% FBS, and were inspected visually for authentication and tested for mycoplasma contamination using a MycoAlert detection kit (Lonza). Cells were grown to confluence, trypsinized, counted and plated in 384-well cell culture plates at an appropriate density (2,500 cells per well for HEK293 and 1000 cells per well for MRC5). The test compound was added 24 h later in the presence of calcium, and viability was determined after 4.5 h of incubation. Experiments were performed with biological replicates. Haemolytic activity was evaluated by a red blood cell disc diffusion assay. Twenty-microlitre stocks of malacidin A and Triton X-100 were infused on filter discs, dried completely and then overlaid on 5% sheep blood agar plates (Hardy Diagnostics). The plates were incubated for 24 h at 20° C., and then checked for lysis.

Data set [11] deals with HEK293 cells. The format is cell-based, human. The conditions noted are these: viability, in the presence of calcium, 4.5 h. On the procedure: as §2

These results are taken from patent publication US11472843B2, “Malacidins and methods of use” (The Rockefeller University, priority 2017, dated 2022).

Turning to malacidin A, the minimal inhibitory concentration (MIC) was 0.2-0.8 μg m1^−1 in data set [1] (S. aureus COL, 15 mM CaCl2); 0.2 to 0.8 µg/mL in data set [1] (Staphylococcus aureus COL); 0.2-0.8 μg m1^−1 in [3] (S. aureus NRS100, tetracycline, 15 mM CaCl2); 0.2 to 0.8 µg/mL in data set [3] (Staphylococcus aureus NRS100, Tetracycline); 0.2-0.8 μg m1^−1 in data set [4] (S. aureus BAA-42, 15 mM CaCl2); 0.2 to 0.8 µg/mL in [4] (Staphylococcus aureus BAA-42). Besides, the MIC in data set [5] was above 100 µg/mL; in data set [6] it was above 100 µg/mL; in data set [7] (S. aureus NRS146, vancomycin (VISA), 15 mM CaCl2), 0.4-0.8 μg m1^−1; in data set [7] (Staphylococcus aureus NRS146, Vancomycin (VISA)) it was 0.4 to 0.8 µg/mL; in [8] (E. faecium VRE, 15 mM CaCl2), 0.4-0.8 μg m1^−1; in [8] (Enterococcus faecium VRE), 0.8 to 2.0 µg/mL. For the same substance, the “Membrane leakage (SYTOX green or DiBAC4)” value in data set [2] (absence of calcium supplementation) is on record as “No membrane leakage”. The “Membrane leakage (SYTOX green fluorescence)” value in data set [2] (with calcium (15 mM CaCl2)) was “does not cause MRSA membrane leakage”. Also, the “Sequestration of C55-P (TLC mobility shift)” value in data set [9] is given as “did not sequester C55-P”. For the same substance, the “MIC (a = Viability assessed by ATP release assay)” value in data set [10] is above 100a μg mL^−1. Besides, the IC50 in data set [10] (MRC5, viability, in the presence of calcium, 4.5 h) is given as above 100 μg m1^−1; in [11], above 100 μg m1^−1.

In general, MIC refers to the lowest concentration that inhibits growth of the organism. A high value points to a less susceptible organism.
